Laboratory results from paper PMC12703677, “Discovery of a Copper-Binding Carbohydrate-Binding Module Regulating the Activity of Lytic Polysaccharide Monooxygenases” (Journal of the American Chemical Society, 2025).

Columns and labels:
[1] = molecular target: T1, ScAA10 (CD; catalytic domain of ScLPMO10C) (Streptomyces coelicolor, UniProt Q9RJY2); experiment: fluorescence stopped-flow, single-turnover reduction of LPMO-Cu(II); format: biochemical; details: reductant; 50 mM sodium phosphate pH 6.0, 25 °C, anaerobic, no polysaccharide; second-order rate constant only, no Km
T1 construct: gene celS2; N-terminal His35), SmLPMO10A signal peptide cleaved, E. coli periplasm, untagged, Cu(II)-loaded

[2] = molecular target: T2, ScLPMO10C (ScLPMO10C^(MMH)) (Streptomyces coelicolor, UniProt Q9RJY2); experiment: as above; format: biochemical; details: reductant; 50 mM sodium phosphate pH 6.0, 25 °C, anaerobic, no polysaccharide; second-order rate constant only, no Km
T2 construct: gene celS2; full-length mature AA10-linker-CBM2, native signal peptide replaced by SmLPMO10A signal peptide (cleaved; N-terminal His35), E. coli periplasm, untagged, Cu(II)-loaded
T2 sequence (Q9RJY2 entry or part of it): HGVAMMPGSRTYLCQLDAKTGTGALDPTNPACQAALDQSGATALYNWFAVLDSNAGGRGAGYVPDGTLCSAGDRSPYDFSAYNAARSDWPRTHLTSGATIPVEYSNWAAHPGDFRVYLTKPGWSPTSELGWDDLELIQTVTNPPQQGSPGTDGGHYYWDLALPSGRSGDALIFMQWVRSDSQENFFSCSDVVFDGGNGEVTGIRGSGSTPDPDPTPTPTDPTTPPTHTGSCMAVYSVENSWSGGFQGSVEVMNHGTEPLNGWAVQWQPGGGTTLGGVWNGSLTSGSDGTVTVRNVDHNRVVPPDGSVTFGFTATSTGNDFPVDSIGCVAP

T1 sequence (Q9RJY2 entry or part of it): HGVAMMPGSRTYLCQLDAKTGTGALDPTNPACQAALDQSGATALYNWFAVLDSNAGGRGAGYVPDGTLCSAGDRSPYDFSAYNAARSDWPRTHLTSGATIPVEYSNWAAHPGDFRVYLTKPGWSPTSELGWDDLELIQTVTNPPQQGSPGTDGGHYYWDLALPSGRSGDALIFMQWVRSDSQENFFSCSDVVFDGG

In the case of `O=C1O[C@H]([C@@H](O)CO)C(O)=C1O` [ascorbic acid], the “k AscA” value [1] is reported as “the two variants exhibited identical reduction rates” and the “k AscA” value [2] is reported as “the two variants exhibited identical reduction rates”.
